Experimental data as given in ChEMBL document CHEMBL1201862, “PubChem BioAssay data set” (2004).
Values joined by “and” are separate entries in the source; they are usually repeats but may differ in a detail not shown here. Equal values may be shown once.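 Cultured in 96-well plates, cells were exposed to test compound for 48 hours across five concentrations. At the GI50, growth is halved.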 Active and inactive are the calls of the source. Rule as the data show it: active = GI50 up to about 1.1 µM and inactive = higher.

Legend:
Test in all cases: NCI-60 cell line screen, 48 h
KM12 = system: KM12
SK-MEL-2 = system: SK-MEL-2
SF-539 = system: SF-539
CAKI-1 = system: CAKI-1
Hs-578T = system: Hs-578T
RXF 393 = system: RXF 393
NCI-H522 = system: NCI-H522
HOP-92 = system: HOP-92
RPMI-8226 = system: RPMI-8226
NCI/ADR-RES = system: NCI/ADR-RES
HCC 2998 = system: HCC 2998
Malme-3M = system: Malme-3M
MOLT-4 = system: MOLT-4
U-251 = system: U-251
A549 = system: A549
SNB-19 = system: SNB-19
MDA-N = system: MDA-N
DU-145 = system: DU-145
SK-OV-3 = system: SK-OV-3
K562 = system: K562
HCT-116 = system: HCT-116
CCRF-CEM = system: CCRF-CEM
SW-620 = system: SW-620
MDA-MB-231 = system: MDA-MB-231
UACC-62 = system: UACC-62
786-0 = system: 786-0
OVCAR-8 = system: OVCAR-8
M14 = system: M14
OVCAR-3 = system: OVCAR-3
NCI-H23 = system: NCI-H23
UACC-257 = system: UACC-257
UO-31 = system: UO-31
MDA-MB-435 = system: MDA-MB-435
SK-MEL-5 = system: SK-MEL-5
A498 = system: A498
T47D = system: T47D
SF-295 = system: SF-295
COLO 205 = system: COLO 205
HCT-15 = system: HCT-15
SF-268 = system: SF-268
HL-60 = system: HL-60
OVCAR-5 = system: OVCAR-5
HT-29 = system: HT-29
SK-MEL-28 = system: SK-MEL-28
SR = system: SR
HOP-62 = system: HOP-62
NCI-H460 = system: NCI-H460
SNB-75 = system: SNB-75
IGROV-1 = system: IGROV-1
ACHN = system: ACHN
NCI-H226 = system: NCI-H226
PC-3 = system: PC-3
SN12C = system: SN12C
EKVX = system: EKVX
OVCAR-4 = system: OVCAR-4
MCF7 = system: MCF7
LOX IMVI = system: LOX IMVI
TK-10 = system: TK-10

COc1cc(CC(C)N[C@@H](C)c2ccccc2)cc(OC)c1 (stereo partly specified)
GI50 (KM12): > 100 µM (inactive)
GI50 (SK-MEL-2): > 100 µM (inactive)
GI50 (SF-539): > 100 µM (inactive)
GI50 (CAKI-1): > 100 µM (inactive)
GI50 (Hs-578T): 72.1 µM (inactive)
GI50 (RXF 393): > 100 µM (inactive)
GI50 (NCI-H522): > 100 µM (inactive)

CCCOc1c2cc(COC3OC(CO)C(O)C(O)C3O)cc1Cc1cc(COC3OC(CO)C(O)C(O)C3O)cc(c1OCCC)Cc1cc(COC3OC(CO)C(O)C(O)C3O)cc(c1OCCC)Cc1cc(COC3OC(CO)C(O)C(O)C3O)cc(c1OCCC)C2 (stereo unspecified)
GI50 (HOP-92): 48.9 µM (inactive) and 57.1 µM (inactive)
GI50 (RPMI-8226): 50.7 µM (inactive) and 54.3 µM (inactive)
GI50 (NCI/ADR-RES): > 100 µM (inactive) and 92.7 µM (inactive)
GI50 (HCC 2998): 45.6 µM (inactive) and 57.8 µM (inactive) and 32 µM (inactive)
GI50 (Malme-3M): > 100 µM (inactive)
GI50 (Hs-578T): 54 µM (inactive) and 39.1 µM (inactive)
GI50 (MOLT-4): 14.4 µM (inactive)

NC1CCCCC1.O=C(CP(=O)(O)O)NC(CC(=O)OCc1ccccc1)C(=O)OCc1ccccc1 (stereo unspecified)
GI50 (U-251): > 100 µM (inactive)
GI50 (A549): > 100 µM (inactive)
GI50 (SNB-19): > 100 µM (inactive)
GI50 (MDA-N): > 100 µM (inactive)
GI50 (DU-145): > 100 µM (inactive)
GI50 (SK-OV-3): > 100 µM (inactive)
GI50 (K562): > 100 µM (inactive)
GI50 (HCT-116): > 100 µM (inactive)
GI50 (CCRF-CEM): > 100 µM (inactive)
GI50 (HOP-92): > 100 µM (inactive)
GI50 (SW-620): > 100 µM (inactive)
GI50 (MDA-MB-231): > 100 µM (inactive)
GI50 (UACC-62): > 100 µM (inactive)
GI50 (RPMI-8226): > 100 µM (inactive)
GI50 (786-0): > 100 µM (inactive)
GI50 (OVCAR-8): > 100 µM (inactive)
GI50 (M14): > 100 µM (inactive)
GI50 (OVCAR-3): > 100 µM (inactive)
GI50 (NCI-H23): > 100 µM (inactive)
GI50 (UACC-257): > 100 µM (inactive)
GI50 (UO-31): > 100 µM (inactive)
GI50 (NCI/ADR-RES): > 100 µM (inactive)
GI50 (MDA-MB-435): > 100 µM (inactive)
GI50 (SK-MEL-2): 4.85 µM (inactive)
GI50 (SK-MEL-5): > 100 µM (inactive)
GI50 (HCC 2998): > 100 µM (inactive)
GI50 (SF-539): > 100 µM (inactive)
GI50 (A498): > 100 µM (inactive)
GI50 (T47D): > 100 µM (inactive)
GI50 (SF-295): > 100 µM (inactive)
GI50 (COLO 205): > 100 µM (inactive)
GI50 (HCT-15): > 100 µM
GI50 (SF-268): > 100 µM (inactive)
GI50 (HL-60): > 100 µM (inactive)
GI50 (OVCAR-5): > 100 µM (inactive)
GI50 (CAKI-1): > 100 µM (inactive)
GI50 (HT-29): > 100 µM (inactive)
GI50 (Malme-3M): > 100 µM (inactive)
GI50 (SK-MEL-28): > 100 µM (inactive)
GI50 (Hs-578T): > 100 µM (inactive)
GI50 (RXF 393): > 100 µM (inactive)
GI50 (SR): > 100 µM (inactive)
GI50 (HOP-62): > 100 µM (inactive)
GI50 (NCI-H460): > 100 µM (inactive)
GI50 (SNB-75): 4.1 µM (inactive)
GI50 (IGROV-1): > 100 µM (inactive)
GI50 (ACHN): > 100 µM (inactive)
GI50 (NCI-H522): > 100 µM (inactive)
GI50 (NCI-H226): > 100 µM (inactive)
GI50 (PC-3): 24.2 µM (inactive)
GI50 (SN12C): > 100 µM (inactive)
GI50 (EKVX): > 100 µM (inactive)
GI50 (OVCAR-4): > 100 µM (inactive)
GI50 (MOLT-4): > 100 µM (inactive)

Cc1ccccc1C(=O)NC(O)(C(F)(F)F)C(F)(F)F
GI50 (U-251): > 100 µM (inactive)
GI50 (A549): 82.4 µM (inactive)
GI50 (SNB-19): > 100 µM (inactive)
GI50 (MDA-N): > 100 µM (inactive)
GI50 (DU-145): > 100 µM (inactive)
GI50 (SK-OV-3): > 100 µM (inactive)
GI50 (K562): 57.9 µM (inactive)
GI50 (HCT-116): > 100 µM (inactive)
GI50 (CCRF-CEM): 58.3 µM (inactive)
GI50 (HOP-92): > 100 µM (inactive)
GI50 (SW-620): > 100 µM (inactive)
GI50 (MDA-MB-231): > 100 µM (inactive)
GI50 (KM12): 42.5 µM (inactive)
GI50 (RPMI-8226): 49.1 µM (inactive)
GI50 (786-0): > 100 µM (inactive)
GI50 (OVCAR-8): > 100 µM (inactive)
GI50 (M14): > 100 µM (inactive)
GI50 (OVCAR-3): 35.1 µM (inactive)
GI50 (NCI-H23): 78.2 µM (inactive)
GI50 (UACC-257): 61.9 µM (inactive)
GI50 (UO-31): 34.8 µM (inactive)
GI50 (NCI/ADR-RES): 70 µM (inactive)
GI50 (MDA-MB-435): > 100 µM (inactive)
GI50 (SK-MEL-2): 56.1 µM (inactive)
GI50 (SK-MEL-5): 94 µM (inactive)
GI50 (HCC 2998): > 100 µM (inactive)
GI50 (SF-539): > 100 µM (inactive)
GI50 (A498): > 100 µM (inactive)
GI50 (T47D): 65.2 µM (inactive)
GI50 (SF-295): > 100 µM (inactive)
GI50 (COLO 205): > 100 µM (inactive)
GI50 (HCT-15): > 100 µM
GI50 (SF-268): > 100 µM (inactive)
GI50 (MCF7): > 100 µM (inactive)
GI50 (HL-60): 54.7 µM (inactive)
GI50 (OVCAR-5): > 100 µM (inactive)
GI50 (CAKI-1): > 100 µM (inactive)
GI50 (HT-29): 91.2 µM (inactive)
GI50 (Malme-3M): 28.2 µM (inactive)
GI50 (SK-MEL-28): > 100 µM (inactive)
GI50 (LOX IMVI): > 100 µM (inactive)
GI50 (Hs-578T): 22.5 µM (inactive)
GI50 (RXF 393): > 100 µM (inactive)
GI50 (HOP-62): > 100 µM (inactive)
GI50 (NCI-H460): 84.9 µM (inactive)
GI50 (SNB-75): 0.0302 µM (active)
GI50 (IGROV-1): > 100 µM (inactive)
GI50 (ACHN): > 100 µM (inactive)
GI50 (NCI-H522): 47 µM (inactive)
GI50 (NCI-H226): > 100 µM (inactive)
GI50 (PC-3): 25.5 µM (inactive)
GI50 (SN12C): > 100 µM (inactive)
GI50 (EKVX): > 100 µM (inactive)
GI50 (OVCAR-4): 51.8 µM (inactive)
GI50 (MOLT-4): 35.9 µM (inactive)
GI50 (TK-10): > 100 µM (inactive)

CC1(C)[C@@H]2CC[C@@]1(C)[C@@H]1O[C@@H](O[C@@H](CN)c3cc(Cl)c(OCc4ccccc4)c(OCc4ccccc4)c3)C[C@H]21
GI50 (U-251): 0.158 µM (active)
GI50 (A549): 0.163 µM (active)
GI50 (SNB-19): 0.183 µM (active)
GI50 (MDA-N): 0.152 µM (active)
GI50 (DU-145): 0.191 µM (active)
GI50 (SK-OV-3): 0.175 µM (active)
GI50 (K562): 0.156 µM (active)
GI50 (HCT-116): 0.15 µM (active)
GI50 (CCRF-CEM): 0.167 µM (active)
GI50 (HOP-92): 0.171 µM (active)
GI50 (SW-620): 0.191 µM (active)
GI50 (MDA-MB-231): 0.155 µM (active)
GI50 (KM12): 0.169 µM (active)
GI50 (RPMI-8226): 0.0463 µM (active)
GI50 (786-0): 0.181 µM (active)
GI50 (OVCAR-8): 0.189 µM (active)
GI50 (M14): 0.164 µM (active)
GI50 (OVCAR-3): 0.168 µM (active)
GI50 (UACC-257): 0.175 µM (active)
GI50 (UO-31): 0.173 µM (active)
GI50 (MDA-MB-435): 0.162 µM (active)
GI50 (SK-MEL-2): 0.173 µM (active)
GI50 (SK-MEL-5): 0.178 µM (active)
GI50 (SF-539): 0.196 µM (active)
GI50 (A498): 0.199 µM (active)
GI50 (T47D): 0.178 µM (active)
GI50 (SF-295): 0.183 µM (active)
GI50 (COLO 205): 0.11 µM (active)
GI50 (SF-268): 0.192 µM (active)
GI50 (MCF7): 0.134 µM (active)
GI50 (HL-60): 0.177 µM (active)
GI50 (OVCAR-5): 0.166 µM (active)
GI50 (CAKI-1): 0.165 µM (active)
GI50 (HT-29): 0.151 µM (active)
GI50 (Malme-3M): 0.183 µM (active)
GI50 (SK-MEL-28): 0.19 µM (active)
GI50 (LOX IMVI): 0.166 µM (active)
GI50 (Hs-578T): 0.187 µM (active)
GI50 (RXF 393): 0.15 µM (active)
GI50 (SR): 0.0627 µM (active)
GI50 (HOP-62): 0.179 µM (active)
GI50 (SNB-75): 0.163 µM (active)
GI50 (IGROV-1): 0.179 µM (active)
GI50 (ACHN): 0.169 µM (active)
GI50 (NCI-H522): 0.186 µM (active)
GI50 (NCI-H226): 0.184 µM (active)
GI50 (PC-3): 0.158 µM (active)
GI50 (SN12C): 0.183 µM (active)
GI50 (EKVX): 0.166 µM (active)
GI50 (OVCAR-4): 0.162 µM (active)
GI50 (MOLT-4): 0.16 µM (active)
GI50 (TK-10): 0.177 µM (active)
